Assay [1] concerns the target Calcium/calmodulin-dependent protein kinase kinase 2 (Homo sapiens) (UniProt Q96RR4). Description: Selectivity interaction (LanthaScreen Eu Kinase Binding Assay) EUB0001632a CAMKK2. As to conditions: at 10 µM. (In TR-FRET formats the signal depends on donor and acceptor labels being close together.)
The target in assay [2] is T1, Megakaryocyte-associated tyrosine-protein kinase (Homo sapiens) (UniProt P42679).
T1 sequence (whole entry): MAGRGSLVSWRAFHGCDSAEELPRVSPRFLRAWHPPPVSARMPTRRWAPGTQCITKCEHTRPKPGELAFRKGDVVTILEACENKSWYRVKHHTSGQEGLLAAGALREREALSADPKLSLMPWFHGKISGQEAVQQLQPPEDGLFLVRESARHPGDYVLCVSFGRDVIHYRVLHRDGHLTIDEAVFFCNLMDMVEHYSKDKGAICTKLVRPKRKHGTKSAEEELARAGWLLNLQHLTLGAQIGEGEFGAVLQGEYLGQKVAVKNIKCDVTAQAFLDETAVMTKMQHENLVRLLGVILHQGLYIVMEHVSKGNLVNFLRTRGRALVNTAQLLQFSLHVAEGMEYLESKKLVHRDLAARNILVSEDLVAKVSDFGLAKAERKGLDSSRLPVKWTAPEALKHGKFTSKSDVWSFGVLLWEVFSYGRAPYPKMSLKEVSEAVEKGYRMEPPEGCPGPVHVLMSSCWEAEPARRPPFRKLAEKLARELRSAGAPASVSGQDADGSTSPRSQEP
Kind of assay: Selectivity interaction (Kinase panel (Z-LYTE Assay)) EUB0001632a MATK. To be noted: at 10 µM.

Assay [3] deals with Protein kinase C eta type (Homo sapiens) (UniProt P24723). Description: Selectivity interaction (Kinase panel (Z-LYTE Assay)) EUB0001632a PRKCH. As to conditions: at 10 µM.
Assay [4] deals with Dual specificity protein kinase CLK1 (Homo sapiens, UniProt P49759). Kind of assay: Selectivity interaction (KinomeScan (DiscoverX)) EUB0000607a CLK1. As to conditions: at 10 µM.
Assay [5] deals with T2, Ribosomal protein S6 kinase alpha-1 (Homo sapiens, UniProt Q15418). Kind of assay: Selectivity interaction (ActivX KiNativ screen (kinase selectivity in THP-1 cell lysates)) EUB0000639a RPS6KA1. Format: subcellular. To be noted: lysate, at 0.2 µM.
In assay [6] the target is Serine/threonine-protein kinase 10 (Homo sapiens) (UniProt O94804). Description: Selectivity interaction (ActivX KiNativ screen (kinase selectivity in THP-1 cell lysates)) EUB0000639a STK10. Format: subcellular. As to conditions: lysate, at 1 µM.
Assay [7] has as its target Calcium/calmodulin-dependent protein kinase type II subunit delta (Homo sapiens) (UniProt Q13557). Description: Selectivity interaction (ActivX KiNativ screen (kinase selectivity in THP-1 cell lysates)) EUB0000639a CAMK2D. To be noted: lysate, at 0.01 µM. Format: subcellular.
For assay [8], the target named is T3, Dual specificity mitogen-activated protein kinase kinase 6 (Homo sapiens) (UniProt P52564).
T3 sequence (whole entry): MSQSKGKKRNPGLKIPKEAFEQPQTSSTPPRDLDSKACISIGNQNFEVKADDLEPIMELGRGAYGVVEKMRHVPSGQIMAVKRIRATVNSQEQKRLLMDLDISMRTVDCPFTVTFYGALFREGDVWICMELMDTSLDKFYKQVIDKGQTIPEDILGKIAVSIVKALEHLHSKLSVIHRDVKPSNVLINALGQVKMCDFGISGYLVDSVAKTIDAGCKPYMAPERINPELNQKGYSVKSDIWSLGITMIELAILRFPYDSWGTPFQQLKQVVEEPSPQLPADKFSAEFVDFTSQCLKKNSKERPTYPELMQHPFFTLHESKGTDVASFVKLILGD
Description: Selectivity interaction (Upstate Kinase Profiler service (Millipore)) EUB0000056c MAP2K6. To be noted: at 1 µM.

Assay [9] addresses NT-3 growth factor receptor (Homo sapiens, UniProt Q16288). Description: Selectivity interaction (KinomeScan (DiscoverX)) EUB0000092b NTRK3. To be noted: at 10 µM.
Assay [10] deals with T2, Ribosomal protein S6 kinase alpha-1. Description: Selectivity interaction (Kinase panel (DSF assay)) EUB0001558a RPS6KA1. For orientation: DSF heats the sample and reads unfolding from a dye or from intrinsic fluorescence.
Assay [11] deals with T4, Serine/threonine-protein kinase Nek1 (Homo sapiens) (UniProt Q96PY6).
T4 sequence (whole entry): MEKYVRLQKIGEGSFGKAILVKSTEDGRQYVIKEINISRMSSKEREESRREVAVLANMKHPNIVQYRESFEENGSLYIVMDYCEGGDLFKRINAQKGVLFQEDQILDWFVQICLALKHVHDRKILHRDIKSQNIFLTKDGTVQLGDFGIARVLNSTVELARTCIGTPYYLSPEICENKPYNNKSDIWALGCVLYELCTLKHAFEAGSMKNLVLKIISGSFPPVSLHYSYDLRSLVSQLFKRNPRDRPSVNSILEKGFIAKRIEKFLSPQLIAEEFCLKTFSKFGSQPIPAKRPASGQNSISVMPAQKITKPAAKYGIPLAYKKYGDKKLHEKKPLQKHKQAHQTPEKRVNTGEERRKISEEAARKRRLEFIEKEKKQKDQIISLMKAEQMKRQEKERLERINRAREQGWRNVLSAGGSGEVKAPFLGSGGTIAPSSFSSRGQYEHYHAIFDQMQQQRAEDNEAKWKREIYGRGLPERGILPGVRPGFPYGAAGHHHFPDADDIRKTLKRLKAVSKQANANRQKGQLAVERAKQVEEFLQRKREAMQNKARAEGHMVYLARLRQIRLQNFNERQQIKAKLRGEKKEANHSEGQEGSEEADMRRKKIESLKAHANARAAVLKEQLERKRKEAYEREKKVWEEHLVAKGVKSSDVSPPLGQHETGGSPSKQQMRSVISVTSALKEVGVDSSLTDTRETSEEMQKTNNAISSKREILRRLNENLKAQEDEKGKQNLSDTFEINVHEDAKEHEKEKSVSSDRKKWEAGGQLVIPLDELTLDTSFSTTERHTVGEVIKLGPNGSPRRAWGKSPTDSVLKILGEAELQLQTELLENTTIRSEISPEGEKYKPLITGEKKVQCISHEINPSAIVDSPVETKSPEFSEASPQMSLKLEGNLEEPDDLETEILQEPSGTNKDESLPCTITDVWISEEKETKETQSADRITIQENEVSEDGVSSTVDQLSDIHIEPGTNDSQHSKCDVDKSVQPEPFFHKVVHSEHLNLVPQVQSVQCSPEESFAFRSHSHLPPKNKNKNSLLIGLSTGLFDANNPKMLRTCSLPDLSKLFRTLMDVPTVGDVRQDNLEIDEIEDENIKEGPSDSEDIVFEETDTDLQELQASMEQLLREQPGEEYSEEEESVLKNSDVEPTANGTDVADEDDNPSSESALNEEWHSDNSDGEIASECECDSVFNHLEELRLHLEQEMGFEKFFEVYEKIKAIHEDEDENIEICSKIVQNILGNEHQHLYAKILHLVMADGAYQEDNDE
Description: Selectivity interaction (KinomeScan (DiscoverX)) EUB0001079a NEK1. As to conditions: at 1 µM.

Assay [12] concerns the target Homeodomain-interacting protein kinase 2 (Homo sapiens, UniProt Q9H2X6). Description: Selectivity interaction (KinomeScan (DiscoverX)) EUB0000229b HIPK2. To be noted: at 10 µM.

T2 sequence (Q15418 whole entry): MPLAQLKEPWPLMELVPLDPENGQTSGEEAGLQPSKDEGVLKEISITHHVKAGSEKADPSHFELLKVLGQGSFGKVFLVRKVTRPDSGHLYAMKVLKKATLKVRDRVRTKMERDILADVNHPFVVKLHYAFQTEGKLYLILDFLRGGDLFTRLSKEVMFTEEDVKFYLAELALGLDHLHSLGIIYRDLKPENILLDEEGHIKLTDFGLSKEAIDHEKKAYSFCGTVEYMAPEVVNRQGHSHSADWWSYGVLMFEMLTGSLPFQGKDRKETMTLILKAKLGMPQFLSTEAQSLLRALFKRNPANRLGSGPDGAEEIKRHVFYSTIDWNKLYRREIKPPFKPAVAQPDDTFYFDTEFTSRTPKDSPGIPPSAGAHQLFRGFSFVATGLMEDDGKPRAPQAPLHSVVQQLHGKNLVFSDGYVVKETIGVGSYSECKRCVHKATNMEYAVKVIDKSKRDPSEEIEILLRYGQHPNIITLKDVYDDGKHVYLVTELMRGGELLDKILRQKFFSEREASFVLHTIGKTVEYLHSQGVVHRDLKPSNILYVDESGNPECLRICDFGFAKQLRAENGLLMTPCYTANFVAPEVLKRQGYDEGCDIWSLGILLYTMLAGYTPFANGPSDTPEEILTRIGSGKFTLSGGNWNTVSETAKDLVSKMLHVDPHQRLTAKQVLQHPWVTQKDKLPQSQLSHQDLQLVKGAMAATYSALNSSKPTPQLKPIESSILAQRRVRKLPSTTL
Sequence of Protein kinase C eta type (Homo sapiens) (P24723 whole entry): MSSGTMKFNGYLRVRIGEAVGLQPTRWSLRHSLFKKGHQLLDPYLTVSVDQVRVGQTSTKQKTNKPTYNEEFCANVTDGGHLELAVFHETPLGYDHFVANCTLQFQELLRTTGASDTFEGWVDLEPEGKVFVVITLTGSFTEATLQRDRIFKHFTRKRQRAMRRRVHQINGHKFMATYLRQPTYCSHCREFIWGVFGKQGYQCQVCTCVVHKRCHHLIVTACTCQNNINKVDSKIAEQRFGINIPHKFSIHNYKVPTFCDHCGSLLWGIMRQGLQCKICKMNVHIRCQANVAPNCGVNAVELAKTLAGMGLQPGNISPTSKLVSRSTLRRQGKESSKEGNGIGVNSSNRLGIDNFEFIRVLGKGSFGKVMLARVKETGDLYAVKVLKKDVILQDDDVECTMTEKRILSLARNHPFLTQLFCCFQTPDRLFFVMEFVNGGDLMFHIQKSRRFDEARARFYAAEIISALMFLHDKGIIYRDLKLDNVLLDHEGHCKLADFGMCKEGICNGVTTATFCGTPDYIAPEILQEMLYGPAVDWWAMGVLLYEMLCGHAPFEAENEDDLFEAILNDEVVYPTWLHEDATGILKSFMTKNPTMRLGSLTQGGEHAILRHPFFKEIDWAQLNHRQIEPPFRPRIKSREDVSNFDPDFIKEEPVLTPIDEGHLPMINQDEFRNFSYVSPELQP
Sequence of NT-3 growth factor receptor (Q16288 32-839 limits assumed): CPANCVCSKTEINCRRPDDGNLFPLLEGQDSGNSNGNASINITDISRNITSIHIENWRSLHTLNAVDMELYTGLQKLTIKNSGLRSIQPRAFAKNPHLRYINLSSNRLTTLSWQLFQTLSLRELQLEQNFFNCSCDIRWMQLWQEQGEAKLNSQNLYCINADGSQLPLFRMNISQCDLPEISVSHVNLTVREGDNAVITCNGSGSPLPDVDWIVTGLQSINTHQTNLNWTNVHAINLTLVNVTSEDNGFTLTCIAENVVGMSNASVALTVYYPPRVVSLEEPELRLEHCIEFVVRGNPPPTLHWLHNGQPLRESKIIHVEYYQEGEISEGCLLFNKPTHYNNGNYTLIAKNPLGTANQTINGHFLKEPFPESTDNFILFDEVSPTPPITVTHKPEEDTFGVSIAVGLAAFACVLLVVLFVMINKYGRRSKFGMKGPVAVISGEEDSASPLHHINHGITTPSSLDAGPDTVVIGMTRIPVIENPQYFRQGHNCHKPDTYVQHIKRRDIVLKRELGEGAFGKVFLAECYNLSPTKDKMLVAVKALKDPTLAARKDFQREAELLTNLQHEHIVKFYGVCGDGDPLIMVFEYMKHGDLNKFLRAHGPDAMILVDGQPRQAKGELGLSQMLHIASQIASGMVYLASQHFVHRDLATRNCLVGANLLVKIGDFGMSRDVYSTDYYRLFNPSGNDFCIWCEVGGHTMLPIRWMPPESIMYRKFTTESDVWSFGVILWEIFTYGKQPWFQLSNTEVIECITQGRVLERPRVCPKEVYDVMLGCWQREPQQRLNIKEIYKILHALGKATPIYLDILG
Sequence of Homeodomain-interacting protein kinase 2 (Q9H2X6 whole entry, looked up): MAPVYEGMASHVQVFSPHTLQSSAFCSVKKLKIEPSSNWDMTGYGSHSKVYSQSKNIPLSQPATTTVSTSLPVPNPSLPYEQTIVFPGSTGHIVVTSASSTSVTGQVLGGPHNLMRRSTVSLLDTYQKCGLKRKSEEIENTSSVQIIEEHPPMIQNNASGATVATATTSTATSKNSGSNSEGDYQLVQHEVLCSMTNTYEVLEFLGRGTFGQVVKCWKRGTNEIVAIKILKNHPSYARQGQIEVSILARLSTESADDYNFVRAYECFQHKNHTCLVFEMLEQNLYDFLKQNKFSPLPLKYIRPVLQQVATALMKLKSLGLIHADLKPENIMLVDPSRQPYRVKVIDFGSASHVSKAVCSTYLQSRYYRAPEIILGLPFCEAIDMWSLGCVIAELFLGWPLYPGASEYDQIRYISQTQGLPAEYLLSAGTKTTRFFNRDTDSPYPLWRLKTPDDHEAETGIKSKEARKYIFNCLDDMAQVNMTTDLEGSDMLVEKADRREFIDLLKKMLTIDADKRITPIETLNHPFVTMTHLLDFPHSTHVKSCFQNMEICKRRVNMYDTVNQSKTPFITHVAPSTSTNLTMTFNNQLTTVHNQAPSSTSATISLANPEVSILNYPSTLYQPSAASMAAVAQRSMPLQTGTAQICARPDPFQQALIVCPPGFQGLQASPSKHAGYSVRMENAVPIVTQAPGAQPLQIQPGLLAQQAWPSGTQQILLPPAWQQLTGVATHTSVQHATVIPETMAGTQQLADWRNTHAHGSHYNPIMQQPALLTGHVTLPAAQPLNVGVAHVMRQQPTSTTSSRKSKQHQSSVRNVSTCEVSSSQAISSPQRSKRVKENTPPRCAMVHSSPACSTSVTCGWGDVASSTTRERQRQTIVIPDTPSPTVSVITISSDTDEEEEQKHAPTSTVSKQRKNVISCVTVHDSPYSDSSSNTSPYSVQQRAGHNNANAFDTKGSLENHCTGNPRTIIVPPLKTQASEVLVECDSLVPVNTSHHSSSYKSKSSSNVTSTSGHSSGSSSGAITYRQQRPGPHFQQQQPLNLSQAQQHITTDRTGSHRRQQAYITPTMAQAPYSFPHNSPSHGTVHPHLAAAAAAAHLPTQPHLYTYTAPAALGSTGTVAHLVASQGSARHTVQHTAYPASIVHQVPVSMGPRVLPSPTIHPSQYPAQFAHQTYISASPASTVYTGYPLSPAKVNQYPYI
Sequence of Calcium/calmodulin-dependent protein kinase kinase 2 (Homo sapiens) (Q96RR4 2-588 limits assumed): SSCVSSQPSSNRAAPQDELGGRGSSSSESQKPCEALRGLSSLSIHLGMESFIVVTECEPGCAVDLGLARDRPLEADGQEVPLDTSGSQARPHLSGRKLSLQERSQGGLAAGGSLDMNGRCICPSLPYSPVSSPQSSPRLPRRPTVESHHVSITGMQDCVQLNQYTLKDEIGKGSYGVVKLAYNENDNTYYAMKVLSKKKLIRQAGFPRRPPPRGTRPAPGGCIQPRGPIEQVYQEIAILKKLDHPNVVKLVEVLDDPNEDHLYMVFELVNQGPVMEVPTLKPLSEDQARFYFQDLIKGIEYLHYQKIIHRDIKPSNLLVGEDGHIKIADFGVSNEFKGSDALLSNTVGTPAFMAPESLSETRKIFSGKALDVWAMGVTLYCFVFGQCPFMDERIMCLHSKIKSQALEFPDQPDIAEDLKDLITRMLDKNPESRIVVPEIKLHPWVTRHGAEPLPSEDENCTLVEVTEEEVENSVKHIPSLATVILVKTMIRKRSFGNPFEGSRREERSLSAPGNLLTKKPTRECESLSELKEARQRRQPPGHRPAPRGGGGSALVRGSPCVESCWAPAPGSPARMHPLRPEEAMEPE
Sequence of Calcium/calmodulin-dependent protein kinase type II subunit delta (Homo sapiens) (Q13557 whole entry): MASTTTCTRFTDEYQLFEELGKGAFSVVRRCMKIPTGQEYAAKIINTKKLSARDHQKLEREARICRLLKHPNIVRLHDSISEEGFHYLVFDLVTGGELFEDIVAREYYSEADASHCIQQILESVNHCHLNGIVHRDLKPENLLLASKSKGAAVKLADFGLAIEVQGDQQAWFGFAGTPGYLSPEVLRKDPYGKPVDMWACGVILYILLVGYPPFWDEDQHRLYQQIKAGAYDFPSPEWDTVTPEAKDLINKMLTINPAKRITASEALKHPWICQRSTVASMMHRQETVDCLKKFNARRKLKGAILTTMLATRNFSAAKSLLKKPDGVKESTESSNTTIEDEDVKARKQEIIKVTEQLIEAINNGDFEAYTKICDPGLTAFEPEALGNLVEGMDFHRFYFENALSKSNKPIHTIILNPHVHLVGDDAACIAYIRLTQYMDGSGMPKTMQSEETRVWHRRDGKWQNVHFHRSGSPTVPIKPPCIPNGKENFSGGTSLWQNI
Sequence of Dual specificity protein kinase CLK1 (P49759 whole entry, looked up): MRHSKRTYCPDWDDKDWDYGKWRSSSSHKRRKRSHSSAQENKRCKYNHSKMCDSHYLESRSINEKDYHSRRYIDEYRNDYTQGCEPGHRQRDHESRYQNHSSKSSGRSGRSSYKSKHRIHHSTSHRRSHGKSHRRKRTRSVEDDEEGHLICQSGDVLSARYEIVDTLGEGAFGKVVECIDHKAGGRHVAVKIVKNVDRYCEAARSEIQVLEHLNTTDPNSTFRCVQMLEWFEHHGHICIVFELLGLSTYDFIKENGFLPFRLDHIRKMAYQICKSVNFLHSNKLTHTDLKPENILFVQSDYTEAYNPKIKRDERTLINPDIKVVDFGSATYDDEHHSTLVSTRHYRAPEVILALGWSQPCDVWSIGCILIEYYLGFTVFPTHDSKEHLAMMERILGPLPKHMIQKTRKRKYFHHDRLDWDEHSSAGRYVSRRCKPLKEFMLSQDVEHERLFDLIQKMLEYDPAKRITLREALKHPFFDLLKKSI

For the compound `Cn1cc(-n2cnc3c(NCc4nc5cc(Cl)c(Cl)cc5[nH]4)nc(N4CCOCC4)nc32)cn1`, in assay [1], the % of inhibition is -0.213%. Besides, the % of control in assay [2] was determined as 7.05%; in assay [3], 19.3%. `CNC(=O)Nc1ccc(-c2nc(N3CC4CCC(C3)O4)c3cnn(C4CCC5(CC4)OCCO5)c3n2)cc1` displayed a % of control in [4] of 29%. Consider `CC[C@@H]1[C@H](F)C(=O)N[C@@H]1COc1nccc2cc(C(N)=O)c(OC)cc12` [ZIMLOVISERTIB], for which the % of inhibition is 10.3% in [5], -15.7% in [6] and 3.3% in assay [7].

For the compound `Cc1ccc(-c2ccc3c(ccc4sc5c(c43)NC[C@@H](C)NC5=O)n2)cn1`, in [8], the % of inhibition was determined as 2%. `CCC(=O)N1CCN(c2ccc(-n3c(=O)ccc4cnc5ccc(-c6cnc7ccccc7c6)cc5c43)cc2C(F)(F)F)CC1` displayed a % of control in assay [9] of 100%. Consider `CC(C)(O)[C@H](F)CN1Cc2cc(NC(=O)c3cnn4cccnc34)c(N3CCOCC3)cc2C1=O`, for which the dTM in [10] is -0.2 K. For `Nc1cnc(N2CCc3cc(S(=O)(=O)Nc4c(F)cc(Cl)cc4F)cc(N4CCCC4=O)c32)nc1` [TP-020n], in [11], the % of control is 46%. Compound `COc1cc(N(C)c2ccnc3ccc(C(F)(F)F)cc23)cc(OC)c1OC` came in with a % binding in [12] of 100%.

For the origin of these results see ChEMBL document CHEMBL5465560, “Selectivity Literature for EUbOPEN Chemogenomic Library” (2024).
